Drawing on US8933099B2, “Monocyclic pyridine derivative” (Eisai R&D Management Co., Ltd., priority 2013, dated 2015), this text covers IC50 for 47 compounds.

In test [1] the test system is normal human umbilical vein endothelial cells (HUVEC). Nature of the test: HUVEC growth inhibition assay (VEGF-induced). It counts as cell-based. The protocol:
The absorbance value was measured with ENVISION™ (PerkinElmer Co., Ltd.) at 450 nm. The absorbance values of the wells without adding the test substance but with VEGF addition was defined as 100% and the absorbance values of the wells with neither the test substance nor VEGF addition was defined as 0%.

For test [2], the system named is human stomach cancer cell line SNU-16 (FGFR2 gene amplification). Nature of the test: SNU-16 growth inhibition assay. Type of test: cell-based. The protocol: In this assay, the growth inhibitory activity of a test substance in a human stomach cancer cell line harboring FGFR2 gene amplification is measured.
Then, 10 μL of Cell Counting Kit-8 (Dojindo Laboratories, CK04) was added to each well, and the resultant was incubated for 1 to 2 hours in a 5% CO2 incubator (37° C.) to cause a color reaction. The absorbance value was measured with ENVISION™ (PerkinElmer Co., Ltd.) at 450 nm.

The mark [3] stands for this setting: Homo sapiens, HUVEC, 72 h, read-out: HUVEC (IC50 (nM)), growth in the presence of VEGF 10 ng/mL, 3 days.
[4] abbreviates: Homo sapiens, SNU-16, 72 h, read-out: SNU-16 (IC50 (nM)), cell growth, 3 days, Cell Counting Kit-8.

Read-outs that look alike come from different tables or passages of the source.

With `CNC(=O)n1ccc2cc(Oc3ccnc(NC(=O)c4cnn(C5CCN(C[C@H](C)O)CC5)c4)c3)c(OC)cc21` [Example 45], the IC50 in test [1] (setting [3]) came out at 379 nM; in test [2] (setting [4]) it was 15.5 nM.

As for `CNC(=O)n1ccc2cc(Oc3ccnc(NC(=O)c4cnn(C5CCN(C(C)C)CC5)c4)c3)c(OC)cc21` [Example 46], the IC50 was determined as 402 nM in test [1] (setting [3]) and 17.4 nM in test [2] (setting [4]).

Consider `CNC(=O)n1ccc2cc(Oc3ccnc(NC(=O)c4ccc(C5CN(C(C)C)C5)cc4)c3)c(OC)cc21` [Example 47], for which the IC50 in test [1] (setting [3]) came to 174 nM; in test [2] (setting [4]), 13.1 nM.

Consider `CNC(=O)n1ccc2cc(Oc3ccnc(NC(=O)c4ccc(C5CN(CC(C)(C)O)C5)cc4)c3)c(OC)cc21` [Example 48], for which the IC50 in test [1] (setting [3]) was found to be 77.8 nM; in test [2] (setting [4]) it was 11.7 nM.

As for `CCN1CC(c2ccc(C(=O)Nc3cc(Oc4cc5ccn(C(=O)NC)c5cc4OC)ccn3)cc2)C1` [Example 49], the IC50 in test [1] (setting [3]) turned out to be 163 nM; in test [2] (setting [4]), 9.6 nM.

Take `CNC(=O)n1ccc2cc(Oc3ccnc(NC(=O)c4ccc(CN5CCC[C@@H]5CO)cc4)c3)c(OC)cc21` [Example 50]: the results for the IC50 in test [1] (setting [3]) and in test [2] (setting [4]) were 394 nM and 16.6 nM, respectively.

With `CNC(=O)n1ccc2cc(Oc3ccnc(NC(=O)c4ccc(CN5CCC[C@H]5CO)cc4)c3)c(OC)cc21` [Example 51], the IC50 in test [1] (setting [3]) is 410 nM; in test [2] (setting [4]), 12.5 nM.

In the case of `CNC(=O)n1ccc2cc(Oc3ccnc(NC(=O)c4ccc(CN5CC[C@H](O)C5)cc4)c3)c(OC)cc21` [Example 52], the IC50 was 388 nM in test [1] (setting [3]) and 14.4 nM in test [2] (setting [4]).

For `CNC(=O)n1ccc2cc(Oc3ccnc(NC(=O)c4ccc(CN5CC[C@@H](O)C5)cc4)c3)c(OC)cc21` [Example 53], the IC50 in test [1] (setting [3]) worked out at 401 nM; in test [2] (setting [4]), 14.5 nM.

For the compound `CNC(=O)n1ccc2cc(Oc3ccnc(NC(=O)c4ccc(C5CCN(C[C@@H](C)O)CC5)cc4)c3)c(OC)cc21` [Example 54], the values for the IC50 in test [1] (setting [3]) and in test [2] (setting [4]) were 86.7 nM and 6.4 nM, respectively.

On to `CCN1CCN(CCOc2ccc(C(=O)Nc3cc(Oc4cc5ccn(C(=O)NC)c5cc4OC)ccn3)cc2)CC1` [Example 55], for which the IC50 worked out at 201 nM in test [1] (setting [3]) and 20.8 nM in test [2] (setting [4]).

As to `CNC(=O)n1ccc2cc(Oc3ccnc(NC(=O)c4ccc(CCN5CCC(O)CC5)cc4)c3)c(OC)cc21` [Example 56], the IC50 in test [1] (setting [3]) is 96.8 nM; in test [2] (setting [4]), 15 nM.

Regarding `CNC(=O)n1ccc2cc(Oc3ccnc(NC(=O)c4ccc(C5CCN(C)CC5)cc4)c3)c(OC)cc21` [Example 57], the IC50 came out at 127 nM in test [1] (setting [3]) and 7.6 nM in test [2] (setting [4]).

`CCOc1cc2c(ccn2C(=O)NC)cc1Oc1ccnc(NC(=O)c2ccc(C3CCN(C(C)C)CC3)cc2)c1` [Example 59]: the figures for the IC50 in test [1] (setting [3]) and in test [2] (setting [4]) were 253 nM and 14.5 nM, respectively.

As for `CCOc1cc2c(ccn2C(=O)NC)cc1Oc1ccnc(NC(=O)c2ccc(C3CCN(C[C@@H](C)O)CC3)cc2)c1` [Example 60], the figures for the IC50 in test [1] (setting [3]) and in test [2] (setting [4]) were 178 nM and 14.7 nM, respectively.

With `CCOc1cc2c(ccn2C(=O)NC)cc1Oc1ccnc(NC(=O)c2ccc(C3CCN(C[C@H](C)O)CC3)cc2)c1` [Example 61], the IC50 in test [1] (setting [3]) was 182 nM; in test [2] (setting [4]), 10.7 nM.

For `CCOc1cc2c(ccn2C(=O)NC)cc1Oc1ccnc(NC(=O)c2ccc(N3CCC(N4CCCC4)CC3)cc2)c1` [Example 62], the IC50 in test [1] (setting [3]) turned out to be 223 nM; in test [2] (setting [4]), 27.4 nM.

`CCOc1cc2c(ccn2C(=O)NC)cc1Oc1ccnc(NC(=O)c2ccc(C3CCN(CCO)CC3)cc2)c1` [Example 63]: the IC50 was determined as 170 nM in test [1] (setting [3]) and 9.6 nM in test [2] (setting [4]).

Take `CCOc1cc2c(ccn2C(=O)NC)cc1Oc1ccnc(NC(=O)c2ccc(C3CCN(C)CC3)cc2)c1` [Example 64]: the IC50 came out at 175 nM in test [1] (setting [3]) and 10.3 nM in test [2] (setting [4]).

Regarding `CCOc1cc2c(ccn2C(=O)NC)cc1Oc1ccnc(NC(=O)c2ccc(CN3CCC(O)CC3)cc2)c1` [Example 65], the IC50 in test [1] (setting [3]) came out at 575 nM; in test [2] (setting [4]), 23.6 nM.

As for `CNC(=O)n1ccc2cc(Oc3ccnc(NC(=O)c4ccc(C5CCN(C[C@H](C)O)CC5)cc4)c3)c(OC(C)C)cc21` [Example 66], the IC50 in test [1] (setting [3]) came out at 203 nM; in test [2] (setting [4]) it was 16.1 nM.

Take `CNC(=O)n1ccc2cc(Oc3ccnc(NC(=O)c4ccc(C5CCN(CCO)CC5)cc4)c3)c(OC(C)C)cc21` [Example 67]: the IC50 in test [1] (setting [3]) turned out to be 223 nM; in test [2] (setting [4]), 17.6 nM.

Consider `CCN1CCC(c2ccc(C(=O)Nc3cc(Oc4cc5ccn(C(=O)NC)c5cc4OC(C)C)ccn3)cc2)CC1` [Example 68], for which the IC50 in test [1] (setting [3]) is 256 nM; in test [2] (setting [4]), 20 nM.

In the case of `CNC(=O)n1ccc2cc(Oc3ccnc(NC(=O)c4ccc(CN5CCC(O)CC5)cc4)c3)c(OC(C)C)cc21` [Example 70], the IC50 came to 610 nM in test [1] (setting [3]) and 22.4 nM in test [2] (setting [4]).

As to `CNC(=O)n1ccc2cc(Oc3ccnc(NC(=O)c4ccc(CN5CC[C@H](O)C5)cc4)c3)c(OCCCF)cc21` [Example 71], the IC50 came out at 648 nM in test [1] (setting [3]) and 17 nM in test [2] (setting [4]).

Regarding `CNC(=O)n1ccc2cc(Oc3ccnc(NC(=O)c4ccc(CN5CC[C@@H](O)C5)cc4)c3)c(OCCCF)cc21` [Example 72], the IC50 in test [1] (setting [3]) came out at 681 nM; in test [2] (setting [4]), 17.1 nM.

For `CNC(=O)n1ccc2cc(Oc3ccnc(NC(=O)c4ccc(CN5CCC(O)CC5)cc4)c3)c(OCCCF)cc21` [Example 73], the IC50 in test [1] (setting [3]) was determined as 703 nM; in test [2] (setting [4]) it was 17.4 nM.

Regarding `CNC(=O)n1ccc2cc(Oc3ccnc(NC(=O)c4ccc(C5CCN(C[C@@H](C)O)CC5)cc4)c3)c(OCCCF)cc21` [Example 74], the IC50 is 198 nM in test [1] (setting [3]) and 8.4 nM in test [2] (setting [4]).

`CNC(=O)n1ccc2cc(Oc3ccnc(NC(=O)c4ccc(C5CCN(C[C@H](C)O)CC5)cc4)c3)c(OCCCF)cc21` [Example 75]: the results for the IC50 in test [1] (setting [3]) and in test [2] (setting [4]) were 211 nM and 7.3 nM, respectively.

In the case of `CNC(=O)n1ccc2cc(Oc3ccnc(NC(=O)c4ccc(C5CCN(C)CC5)cc4)c3)c(OCCCF)cc21` [Example 76], the results for the IC50 in test [1] (setting [3]) and in test [2] (setting [4]) were 248 nM and 7.5 nM, respectively.

`CNC(=O)n1ccc2cc(Oc3ccnc(NC(=O)c4ccc(C5CCN(C(C)C)CC5)nc4)c3)c(OCCOC)cc21` [Example 77]: the IC50 is 1030 nM in test [1] (setting [3]) and 9.6 nM in test [2] (setting [4]).

For `CCN1CCC(c2ccc(C(=O)Nc3cc(Oc4cc5ccn(C(=O)NC)c5cc4OCCOC)ccn3)cn2)CC1` [Example 78], the IC50 in test [1] (setting [3]) came to 835 nM; in test [2] (setting [4]), 6.2 nM.

Take `CNC(=O)n1ccc2cc(Oc3ccnc(NC(=O)c4ccc(C5CN(C[C@@H](C)O)C5)cc4)c3)c(OCCOC)cc21` [Example 80]: the IC50 was found to be 182 nM in test [1] (setting [3]) and 3.8 nM in test [2] (setting [4]).

Take `CNC(=O)n1ccc2cc(Oc3ccnc(NC(=O)c4ccc(C5CN(C[C@H](C)O)C5)cc4)c3)c(OCCOC)cc21` [Example 81]: the IC50 in test [1] (setting [3]) was determined as 126 nM; in test [2] (setting [4]), 3.8 nM.

As to `CNC(=O)n1ccc2cc(Oc3ccnc(NC(=O)c4ccc(CN5CCC[C@@H]5CO)s4)c3)c(OCCOC)cc21` [Example 82], the IC50 in test [1] (setting [3]) turned out to be 264 nM; in test [2] (setting [4]), 6.2 nM.

As for `CNC(=O)n1ccc2cc(Oc3ccnc(NC(=O)c4ccc(CN5CC[C@H](O)C5)s4)c3)c(OCCOC)cc21` [Example 84], the IC50 was 255 nM in test [1] (setting [3]) and 6.2 nM in test [2] (setting [4]).

Turning to `CNC(=O)n1ccc2cc(Oc3ccnc(NC(=O)c4ccc(CN5CC[C@@H](O)C5)s4)c3)c(OCCOC)cc21` [Example 85], the IC50 in test [1] (setting [3]) worked out at 235 nM; in test [2] (setting [4]), 6.9 nM.

For the compound `CNC(=O)n1ccc2cc(Oc3ccnc(NC(=O)c4ccc(CN5CCC(O)CC5)s4)c3)c(OCCOC)cc21` [Example 86], the results for the IC50 in test [1] (setting [3]) and in test [2] (setting [4]) were 250 nM and 6.2 nM, respectively.

For the compound `CCN1CC(c2ccc(C(=O)Nc3cc(Oc4cc5ccn(C(=O)NC)c5cc4OCCOC)ccn3)cc2)C1` [Example 89], the IC50 stood at 416 nM in test [1] (setting [3]) and 6.5 nM in test [2] (setting [4]).

Turning to `CNC(=O)n1ccc2cc(Oc3ccnc(NC(=O)c4ccc(C5CCN(C[C@@H](C)O)CC5)cc4)c3)c(OCCOC)cc21` [Example 90], the IC50 turned out to be 203 nM in test [1] (setting [3]) and 6.1 nM in test [2] (setting [4]).

Take `CNC(=O)n1ccc2cc(Oc3ccnc(NC(=O)c4ccc(C5CCN(C[C@H](C)O)CC5)cc4)c3)c(OCCOC)cc21` [Example 91]: the IC50 is 191 nM in test [1] (setting [3]) and 5.3 nM in test [2] (setting [4]).

In the case of `CCN1CCC(c2ccc(C(=O)Nc3cc(Oc4cc5ccn(C(=O)NC)c5cc4OCCOC)ccn3)cc2)CC1` [Example 92], the IC50 in test [1] (setting [3]) turned out to be 182 nM; in test [2] (setting [4]), 5.8 nM.

`CNC(=O)n1ccc2cc(Oc3ccnc(NC(=O)c4ccc(CN5CCC(O)CC5)cc4)c3)c(OCCOC)cc21` [Example 93]: the IC50 was 887 nM in test [1] (setting [3]) and 17.6 nM in test [2] (setting [4]).

As for `CCOCCOc1cc2c(ccn2C(=O)NC)cc1Oc1ccnc(NC(=O)c2ccc(C3CCN(C(C)C)CC3)nc2)c1` [Example 94], the IC50 in test [1] (setting [3]) was determined as 607 nM; in test [2] (setting [4]), 7.9 nM.

Regarding `CCOCCOc1cc2c(ccn2C(=O)NC)cc1Oc1ccnc(NC(=O)c2ccc(CN3CCC[C@@H]3CO)s2)c1` [Example 98], the IC50 in test [1] (setting [3]) worked out at 228 nM; in test [2] (setting [4]) it was 6.3 nM.

Consider `CCOCCOc1cc2c(ccn2C(=O)NC)cc1Oc1ccnc(NC(=O)c2ccc(CN3CCC[C@H]3CO)s2)c1` [Example 99], for which the figures for the IC50 in test [1] (setting [3]) and in test [2] (setting [4]) were 224 nM and 6.3 nM, respectively.

As to `CCOCCOc1cc2c(ccn2C(=O)NC)cc1Oc1ccnc(NC(=O)c2ccc(CN3CC[C@@H](O)C3)s2)c1` [Example 100], the IC50 in test [1] (read-out: HUVEC (IC50 (nM)), growth in the presence of VEGF 10 ng/mL, 3 days) turned out to be 207 nM; in test [2] (read-out: SNU-16 (IC50 (nM)), cell growth, 3 days, Cell Counting Kit-8), 5.8 nM.
